Measurements from US20040110787A1, “Heteroaryl-ethanolamine derivatives as antiviral agents” (priority 2002, published 2004).

Experiments:
[1] = molecular target: T1, HCMV polymerase (Human cytomegalovirus, UniProt P08546); test: HCMV polymerase scintillation proximity assay (SPA); assay type: biochemical; conditions: HCMV polymerase, SPA; read-out: Polymerase IC50 HCMV
T1 construct: made in house; host or cells: recombinant baculovirus-infected SF-9 cells
Procedure: The HCMV polymerase assay is performed using a scintillation proximity assay (SPA) as described in several references, such as N. D. Cook, et al., Pharmaceutical Manufacturing International, pages 49-53 (1992); K Takeuchi, Laboratory Practice, September issue (1992); U.S. Pat. No. 4,568,649 (1986); which are incorporated by reference herein. Reactions are performed in 96-well plates. The assay is conducted in 100 μl volume with 5.4 mM HEPES (pH 7.5), 11.7 mM KCl, 4.5 mM MgCl2, 0.36 mg/ml BSA, and 90 nM ^3H-dTTP. Assays are run with and without CHAPS, (3-[(3-Cholamidopropyl)-dimethylammonio]-1-propane-sulfonate) at a final concentration of 2 mM. HCMV polymerase is diluted in enzyme dilution buffer containing 50% glycerol, 250 mM NaCl, 10 mM HEPES (pH 7.5), 100 μg/ml BSA, and 0.01% sodium azide. The HCMV polymerase, which is expressed in, recombinant baculovirus-infected SF-9 cells and purified according to literature procedures, is added at 10% (or 10 μl) of the final reaction volume, i.e., 100 μl. Compounds are diluted in 50% DMSO and 10 μl are added to each well. Control wells contain an equivalent concentration of DMSO. Unless noted otherwise, reactions are initiated via the addition of 6 nM biotinylated poly(dA)-oligo(dT) template/primer to reaction mixtures containing the enzyme, substrate, and compounds of interest. Plates are incubated in a 25° C. or 37° C. H2O bath and terminated via the addition of 40 μl/reaction of 0.5 M EDTA (pH 8) per well. Reactions are terminated within the time-frame during which substrate incorporation is linear and varied depending upon the enzyme and conditions used, i.e., 30 min. for HCMV polymerase. Ten (10) 10 μL of streptavidin-SPA beads (20 mg/ml in PBS/10% glycerol) are added following termination of the reaction. Plates are incubated 10 min. at 37° C., then equilibrated to room temperature, and counted on a Packard Topcount. Linear regressions are performed and IC50's are calculated using computer software.
A modified version of the above HCMV polymerase assay is performed as described above, but with the following changes: Compounds are diluted in 100% DMSO until final dilution into assay buffer. In the previous assay, compounds are diluted in 50% DMSO. 4.5 mM Dithiothreitol (DTT) is added to the polymerase buffer.
All results are listed as Polymerase IC50 ([…]) values. In Table 1, the term “n.d.” refers to activity data not determined.

[2] = molecular target: HSV polymerase (Human herpesvirus 1, UniProt P04293); test: HSV polymerase assay (Table 1); assay type: biochemical
HSV polymerase, sequence (P04293 whole entry): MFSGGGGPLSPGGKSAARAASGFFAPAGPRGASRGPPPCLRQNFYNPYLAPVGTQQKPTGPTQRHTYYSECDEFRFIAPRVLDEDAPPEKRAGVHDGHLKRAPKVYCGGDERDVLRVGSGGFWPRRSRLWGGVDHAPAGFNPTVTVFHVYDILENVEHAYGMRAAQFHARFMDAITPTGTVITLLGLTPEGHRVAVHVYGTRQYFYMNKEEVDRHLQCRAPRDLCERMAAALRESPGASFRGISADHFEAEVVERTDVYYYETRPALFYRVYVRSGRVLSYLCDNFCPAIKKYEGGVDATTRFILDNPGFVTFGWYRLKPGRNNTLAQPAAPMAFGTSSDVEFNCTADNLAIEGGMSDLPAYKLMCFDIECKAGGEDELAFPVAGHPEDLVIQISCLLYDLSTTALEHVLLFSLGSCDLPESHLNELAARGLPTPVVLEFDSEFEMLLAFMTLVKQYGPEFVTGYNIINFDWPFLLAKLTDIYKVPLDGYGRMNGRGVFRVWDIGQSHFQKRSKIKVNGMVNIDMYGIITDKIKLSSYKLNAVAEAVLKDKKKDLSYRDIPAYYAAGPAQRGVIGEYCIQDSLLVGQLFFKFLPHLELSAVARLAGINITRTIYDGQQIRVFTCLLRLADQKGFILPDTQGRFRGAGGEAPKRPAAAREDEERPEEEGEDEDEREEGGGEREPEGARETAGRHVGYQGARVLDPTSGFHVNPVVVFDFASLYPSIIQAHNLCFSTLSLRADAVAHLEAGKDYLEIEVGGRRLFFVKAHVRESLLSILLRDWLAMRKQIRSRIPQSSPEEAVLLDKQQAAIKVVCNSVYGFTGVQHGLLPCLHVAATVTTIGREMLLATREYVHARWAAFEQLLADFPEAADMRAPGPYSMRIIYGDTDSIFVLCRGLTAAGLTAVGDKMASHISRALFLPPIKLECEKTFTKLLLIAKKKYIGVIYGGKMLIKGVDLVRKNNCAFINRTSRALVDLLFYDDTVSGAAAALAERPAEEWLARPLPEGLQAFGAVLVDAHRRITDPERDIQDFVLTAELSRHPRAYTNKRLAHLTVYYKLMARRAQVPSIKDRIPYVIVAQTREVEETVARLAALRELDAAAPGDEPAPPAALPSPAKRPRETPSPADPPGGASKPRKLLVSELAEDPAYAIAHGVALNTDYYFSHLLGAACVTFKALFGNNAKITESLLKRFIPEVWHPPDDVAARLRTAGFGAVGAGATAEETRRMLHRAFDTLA

[3] = molecular target: VZV polymerase (Varicella-zoster virus, UniProt P09252); test: VZV polymerase assay (Table 1); assay type: biochemical
VZV polymerase, sequence (P09252 whole entry): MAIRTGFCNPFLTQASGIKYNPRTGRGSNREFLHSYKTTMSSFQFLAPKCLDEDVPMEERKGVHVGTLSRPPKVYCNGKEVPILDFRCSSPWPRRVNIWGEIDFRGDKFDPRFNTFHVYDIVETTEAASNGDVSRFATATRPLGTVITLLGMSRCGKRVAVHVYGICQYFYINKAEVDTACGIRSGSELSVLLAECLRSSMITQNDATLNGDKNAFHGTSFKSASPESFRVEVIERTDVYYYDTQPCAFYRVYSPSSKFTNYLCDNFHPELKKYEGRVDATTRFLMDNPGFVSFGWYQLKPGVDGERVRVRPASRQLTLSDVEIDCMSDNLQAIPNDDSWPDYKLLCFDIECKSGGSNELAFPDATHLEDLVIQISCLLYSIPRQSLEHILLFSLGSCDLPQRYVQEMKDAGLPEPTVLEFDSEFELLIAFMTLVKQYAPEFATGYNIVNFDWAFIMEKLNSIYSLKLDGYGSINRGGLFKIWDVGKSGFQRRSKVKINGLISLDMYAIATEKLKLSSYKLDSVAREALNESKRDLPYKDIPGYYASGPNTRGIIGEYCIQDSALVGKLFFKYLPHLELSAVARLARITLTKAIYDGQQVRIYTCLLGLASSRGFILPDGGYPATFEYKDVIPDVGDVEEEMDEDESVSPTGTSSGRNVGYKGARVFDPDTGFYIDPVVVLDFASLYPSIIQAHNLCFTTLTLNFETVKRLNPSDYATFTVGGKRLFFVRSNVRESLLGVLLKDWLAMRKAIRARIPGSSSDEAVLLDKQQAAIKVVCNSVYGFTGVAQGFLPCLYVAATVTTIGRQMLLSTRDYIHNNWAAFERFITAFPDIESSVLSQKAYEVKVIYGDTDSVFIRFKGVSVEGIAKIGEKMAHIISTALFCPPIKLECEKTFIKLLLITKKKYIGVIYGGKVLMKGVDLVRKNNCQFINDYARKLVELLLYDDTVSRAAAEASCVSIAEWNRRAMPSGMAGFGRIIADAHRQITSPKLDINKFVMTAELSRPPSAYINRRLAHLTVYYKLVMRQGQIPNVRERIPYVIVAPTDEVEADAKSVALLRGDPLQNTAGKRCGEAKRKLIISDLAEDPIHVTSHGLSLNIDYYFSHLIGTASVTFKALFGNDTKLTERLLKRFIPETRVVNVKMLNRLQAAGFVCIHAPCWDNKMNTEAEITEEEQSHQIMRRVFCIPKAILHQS

T1 sequence (P08546 whole entry): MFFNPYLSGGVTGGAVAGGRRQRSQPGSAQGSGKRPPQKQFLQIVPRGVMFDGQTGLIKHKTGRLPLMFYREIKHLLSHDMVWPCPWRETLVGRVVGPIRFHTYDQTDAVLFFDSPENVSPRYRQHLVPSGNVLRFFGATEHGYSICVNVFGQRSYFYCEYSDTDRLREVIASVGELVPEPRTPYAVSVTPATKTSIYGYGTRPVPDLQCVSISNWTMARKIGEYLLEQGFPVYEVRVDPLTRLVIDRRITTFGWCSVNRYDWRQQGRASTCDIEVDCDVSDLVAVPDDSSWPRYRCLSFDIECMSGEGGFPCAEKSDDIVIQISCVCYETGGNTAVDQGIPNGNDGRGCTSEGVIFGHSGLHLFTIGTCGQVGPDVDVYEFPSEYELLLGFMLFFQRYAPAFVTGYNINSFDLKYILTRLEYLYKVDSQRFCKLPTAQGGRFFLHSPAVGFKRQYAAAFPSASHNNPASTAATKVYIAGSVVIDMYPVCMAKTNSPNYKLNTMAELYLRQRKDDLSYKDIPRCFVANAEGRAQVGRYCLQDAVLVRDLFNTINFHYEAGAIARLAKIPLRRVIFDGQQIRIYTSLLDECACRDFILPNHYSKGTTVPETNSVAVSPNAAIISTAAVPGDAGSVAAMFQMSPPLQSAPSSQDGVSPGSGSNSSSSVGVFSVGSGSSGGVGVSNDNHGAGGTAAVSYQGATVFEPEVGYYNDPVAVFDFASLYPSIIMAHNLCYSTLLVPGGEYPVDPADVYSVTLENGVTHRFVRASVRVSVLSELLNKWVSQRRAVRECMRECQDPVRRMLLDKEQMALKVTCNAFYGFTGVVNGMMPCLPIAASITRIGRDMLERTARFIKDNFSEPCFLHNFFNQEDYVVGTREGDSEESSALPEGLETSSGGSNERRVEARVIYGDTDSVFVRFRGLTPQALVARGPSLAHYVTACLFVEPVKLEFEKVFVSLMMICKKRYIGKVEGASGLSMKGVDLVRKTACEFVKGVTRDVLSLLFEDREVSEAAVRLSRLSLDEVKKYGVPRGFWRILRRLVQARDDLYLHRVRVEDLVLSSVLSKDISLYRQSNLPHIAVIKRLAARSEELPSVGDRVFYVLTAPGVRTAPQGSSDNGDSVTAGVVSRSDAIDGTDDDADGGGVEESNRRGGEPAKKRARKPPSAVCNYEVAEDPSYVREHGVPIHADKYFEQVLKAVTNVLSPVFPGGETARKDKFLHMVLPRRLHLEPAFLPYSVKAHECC

| IC50 [1] | IC50 [2] | IC50 [3] | melting point | SMILES |
| --- | --- | --- | --- | --- |
| 370 nM | 550 nM | 170 nM | 130 to 133 °C | CCn1cc(C(=O)NCc2ccc(Cl)cc2)c(=O)c2cc(CN(C)CC(O)c3cnccn3)sc21 (racemic) [Example 13, rac-N-(4-Chlorobenzyl)-7-ethyl-2-(((2-hydroxy-2-pyrazin-2-ylethyl)(methyl)amino)methyl)-4-oxo-4,7-dihydrothieno[2,3-b]pyridine-5-carboxamide] |
| 80 nM | 350 nM | 130 nM | 132 to 135 °C | CN(Cc1cc2c(=O)c(C(=O)NCc3ccc(Cl)cc3)cn(C)c2s1)CC(O)c1cccnc1 (single isomer, unassigned; (+)) [Example 2, (+)-N-(4-Chlorobenzyl)-2-(((2-hydroxy-2-pyridin-3-ylethyl)(methyl)amino)methyl)-7-methyl-4-oxo-4,7-dihydrothieno[2,3-b]pyridine-5-carboxamide] |
| 60 nM | 60 nM | 20 nM | 139 to 144 °C | CN(Cc1cc2c(=O)c(C(=O)NCc3ccc(Cl)cc3)cn(C)c2s1)C[C@@H](O)c1ccccn1 [Example 5, (+)-N-(4-Chlorobenzyl)-2-((((2R)-2-hydroxy-2-pyridin-2-ylethyl)(methyl)amino)methyl)-7-methyl-4-oxo-4,7-dihydrothieno[2,3-b]pyridine-5-carboxamide] |
